For series [1], the target named is PK. The conditions noted are these: no reference given; read-out: K i, PK; cited from earlier work.
For series [2], the target named is T1, human plasmin (Homo sapiens, UniProt P00747).
T1 construct: purchased Calbiochem
Put plainly: Inhibition of human plasmin, fluorogenic substrate Mes-DArg-Phe-Arg-AMC. It counts as biochemical. The method, then:
All inhibitors prepared in this study act as reversible competitive plasmin inhibitors, their K i values were calculated by fitting the steady‐state velocities as function of the inhibitor concentrations using equation 1. 4‐aminophenylalanine (Phe(4‐NH2)) was incorporated as P1’ residue in the first inhibitor series, which enabled a macrocyclization via amide bond formation from its side chain amino group using various linker segments and P2’ residues (Table 1). […] The improved potency of SFTI‐1 analogues with basic P2’ residues[9] stimulated the incorporation of Arg in that position leading to inhibitor 4 with a slightly stronger inhibitory potency. A significant improvement could be achieved when using 3‐ or 4‐aminophenylacetic acid as P2’ group in combination with elongated linker residues (5‐6). […] However, inhibitor 9 is a twofold stronger plasmin inhibitor compared to its analogue 8.
For these inhibitors the steady‐state velocities were calculated by fitting the progress curves to equation 2 providing an additional apparent first‐order rate constant k obs for each curve. The steady‐state rates were used for K i determination with equation 1 and the k obs values for the calculation of the association rate constants k on according to equation 3. The dissociation rate constant k off was calculated from the known K i and k on values using equation 4. The enzyme kinetic evaluation of slow‐binding inhibitors of plasmin has already been described in detail in our two previous publications.[11, 12]
All measurements were conducted as triplicates in black 96‐well FluoroNunc MaxiSorp plates (Nunc, Langenselbold, Germany) and suitable fluorogenic substrates at room temperature. […] Each well contained a total volume of 180 μL consisting of 100 μL of inhibitor dissolved in buffer, 40 μL of the substrate Mes‐DArg‐Phe‐Arg‐AMC[11] (100 μM in assay, KM=16.1 μM) dissolved in water and 40 μL of plasmin solution (0.27 nM in assay). The following equations were used for the enzyme kinetic analysis as described in the results section and in our previous publications.[11, 12] (1) [drawing 71] (2) [drawing 72] (3) [drawing 73] (4) [drawing 74]

Series [3] has as its target plasma kallikrein (PK) (Homo sapiens, UniProt P03952). Put plainly: Selectivity: inhibition of plasma kallikrein. It counts as biochemical. The conditions noted are these: for PK selectivity index K i(protease)/Ki(plasmin): in brackets; for Ki: read-out: PK K i. The method, then: (§1) For these three proteases a selectivity index (SI=K i(protease)/K i(plasmin)) was calculated, which is provided in brackets after the inhibition constants (Table 3).
(§2) The measurements with the related trypsin‐like serine proteases trypsin, plasma kallikrein, factor XIa, thrombin, activated protein Ca and factor Xa used in selectivity studies were performed as described previously.[11, 12]

Series [4] deals with factor XIa (fXIa) (Homo sapiens, UniProt P03951). Kind of series: Selectivity: inhibition of factor XIa. The conditions noted are these: for fXIa selectivity index K i(protease)/Ki(plasmin): in brackets; for Ki: read-out: fXIa K i. It counts as biochemical. The method, then: as §1, §2
factor XIa (fXIa), sequence (P03951 19-387): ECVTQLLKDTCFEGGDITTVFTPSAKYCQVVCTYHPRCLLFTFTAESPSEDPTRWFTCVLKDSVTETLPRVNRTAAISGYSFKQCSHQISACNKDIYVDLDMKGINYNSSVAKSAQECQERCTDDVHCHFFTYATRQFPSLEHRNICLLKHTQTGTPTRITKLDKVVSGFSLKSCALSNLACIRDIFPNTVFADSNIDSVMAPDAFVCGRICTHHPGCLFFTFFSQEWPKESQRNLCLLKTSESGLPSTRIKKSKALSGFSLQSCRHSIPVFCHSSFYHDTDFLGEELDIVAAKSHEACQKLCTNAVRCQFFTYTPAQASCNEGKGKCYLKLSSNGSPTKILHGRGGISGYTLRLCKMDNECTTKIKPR
factor XIa (fXIa), sequence (P03951 388-625): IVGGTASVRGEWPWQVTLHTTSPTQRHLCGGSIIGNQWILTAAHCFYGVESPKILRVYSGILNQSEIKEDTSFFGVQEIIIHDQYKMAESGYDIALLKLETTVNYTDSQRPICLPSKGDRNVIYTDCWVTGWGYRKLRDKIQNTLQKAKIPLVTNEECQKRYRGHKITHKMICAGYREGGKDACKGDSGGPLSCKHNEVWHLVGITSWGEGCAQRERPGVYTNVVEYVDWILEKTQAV
Series [5] addresses thrombin (Homo sapiens, UniProt P00734). Put plainly: Selectivity: inhibition of thrombin. In kind it is biochemical. The settings on record: deduced from pre-assays with only three inhibitor concentrations; read-out: Thrombin K i. The method, then:
as §1, §2

Series [6] deals with activated protein C (aPC) (Homo sapiens, UniProt P04070). Put plainly: Selectivity: inhibition of activated protein C. It counts as biochemical. The conditions noted are these: deduced from pre-assays with only three inhibitor concentrations; read-out: aPC K i. The method, then:
as §1, §2

Series [7] addresses factor Xa (fXa) (Homo sapiens, UniProt P00742). Put plainly: Selectivity: inhibition of factor Xa. In kind it is biochemical. The conditions noted are these: deduced from pre-assays with only three inhibitor concentrations; read-out: fXa K i. The method, then:
as §1, §2

The nature of series [8]: Water solubility (qualitative comparison). The conditions noted are these: compared to inhibitor 28.
Series [9] concerns plasmin. The conditions noted are these: read-out: IC50, plasmin; Figure 1; cited from earlier work.
Setting [10] is: K i (nM), inhibition of plasmin, series two, substituted Bpa in P1', and acyclic analogues, steady-state velocities, equation 1.
The mark [11] stands for this setting: Plasmin K i, Table 3 selectivity.

“And” between values parts separate entries of the source, which are not always exact repeats. Equal values may be shown once. Some results are limits rather than exact numbers.

plasma kallikrein (PK), sequence (P03952 391-638): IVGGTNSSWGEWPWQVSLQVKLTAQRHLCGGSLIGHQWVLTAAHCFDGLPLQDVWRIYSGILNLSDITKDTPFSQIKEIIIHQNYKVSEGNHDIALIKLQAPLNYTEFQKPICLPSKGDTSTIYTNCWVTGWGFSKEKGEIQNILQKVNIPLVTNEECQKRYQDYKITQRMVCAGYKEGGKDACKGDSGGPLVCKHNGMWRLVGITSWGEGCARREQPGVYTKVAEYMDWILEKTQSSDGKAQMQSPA
plasma kallikrein (PK), sequence (P03952 20-390): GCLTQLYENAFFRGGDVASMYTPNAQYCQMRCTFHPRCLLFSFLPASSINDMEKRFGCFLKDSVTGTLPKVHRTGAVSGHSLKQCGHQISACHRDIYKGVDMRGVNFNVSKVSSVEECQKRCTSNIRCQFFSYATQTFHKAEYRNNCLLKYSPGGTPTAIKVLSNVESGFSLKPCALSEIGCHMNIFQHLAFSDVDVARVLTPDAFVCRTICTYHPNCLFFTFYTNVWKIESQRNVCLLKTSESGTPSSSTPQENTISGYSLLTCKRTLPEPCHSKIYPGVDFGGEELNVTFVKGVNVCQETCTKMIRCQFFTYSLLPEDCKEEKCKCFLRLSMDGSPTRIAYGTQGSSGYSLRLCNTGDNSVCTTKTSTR
T1 sequence (P00747 581-810): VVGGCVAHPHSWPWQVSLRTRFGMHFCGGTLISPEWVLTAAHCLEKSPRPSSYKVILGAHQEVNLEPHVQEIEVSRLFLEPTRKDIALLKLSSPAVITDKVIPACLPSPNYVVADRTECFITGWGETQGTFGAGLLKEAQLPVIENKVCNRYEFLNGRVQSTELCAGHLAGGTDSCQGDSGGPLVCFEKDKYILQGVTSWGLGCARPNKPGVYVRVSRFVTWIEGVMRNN
T1 sequence (P00747 97-580): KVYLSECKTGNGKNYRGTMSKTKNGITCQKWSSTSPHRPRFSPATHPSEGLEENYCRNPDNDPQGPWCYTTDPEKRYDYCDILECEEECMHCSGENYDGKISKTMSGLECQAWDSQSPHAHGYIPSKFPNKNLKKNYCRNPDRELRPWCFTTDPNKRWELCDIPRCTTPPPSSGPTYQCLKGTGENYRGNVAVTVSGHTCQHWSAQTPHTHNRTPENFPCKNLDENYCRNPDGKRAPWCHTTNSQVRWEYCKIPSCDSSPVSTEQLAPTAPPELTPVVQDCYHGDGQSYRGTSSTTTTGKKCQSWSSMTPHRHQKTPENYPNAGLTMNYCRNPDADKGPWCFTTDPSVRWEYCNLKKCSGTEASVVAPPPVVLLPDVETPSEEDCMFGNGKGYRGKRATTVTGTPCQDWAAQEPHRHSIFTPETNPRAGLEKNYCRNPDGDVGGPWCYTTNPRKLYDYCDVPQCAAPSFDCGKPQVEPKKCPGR
activated protein C (aPC), sequence (P04070 43-197): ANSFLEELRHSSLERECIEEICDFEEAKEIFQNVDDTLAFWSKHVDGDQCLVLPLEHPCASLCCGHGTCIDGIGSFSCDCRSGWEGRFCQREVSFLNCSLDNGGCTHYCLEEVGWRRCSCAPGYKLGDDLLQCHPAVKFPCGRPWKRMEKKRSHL
activated protein C (aPC), sequence (P04070 212-461): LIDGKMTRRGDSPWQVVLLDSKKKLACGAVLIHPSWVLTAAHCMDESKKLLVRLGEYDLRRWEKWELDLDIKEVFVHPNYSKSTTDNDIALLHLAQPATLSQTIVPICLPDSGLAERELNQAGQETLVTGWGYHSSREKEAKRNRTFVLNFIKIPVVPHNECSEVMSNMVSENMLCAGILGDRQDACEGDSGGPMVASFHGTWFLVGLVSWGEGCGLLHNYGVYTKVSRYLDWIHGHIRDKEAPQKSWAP
factor Xa (fXa), sequence (P00742 41-179): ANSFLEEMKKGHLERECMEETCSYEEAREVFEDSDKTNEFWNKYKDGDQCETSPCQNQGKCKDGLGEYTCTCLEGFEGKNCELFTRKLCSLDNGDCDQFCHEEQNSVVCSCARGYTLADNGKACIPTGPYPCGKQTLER
factor Xa (fXa), sequence (P00742 235-488): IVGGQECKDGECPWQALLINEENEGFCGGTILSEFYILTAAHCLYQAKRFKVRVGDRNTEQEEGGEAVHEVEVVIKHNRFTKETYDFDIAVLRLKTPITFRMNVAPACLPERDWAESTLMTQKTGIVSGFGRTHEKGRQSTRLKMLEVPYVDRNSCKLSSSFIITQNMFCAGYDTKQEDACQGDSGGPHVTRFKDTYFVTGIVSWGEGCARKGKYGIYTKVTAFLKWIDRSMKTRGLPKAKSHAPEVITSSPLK

aprotinin: the Ki in series [1] is 30 nM.
Take `Cc1ccc2cc1NC(=O)C(Cc1ccccc1)NC(=O)CCCNC(=O)Cc1ccc(cc1)NC(=O)C(NC(=O)C1CCC(CN)CC1)Cc1ccc-2cc1` (stereo not drawn) [inhibitor 30]: the Ki in [2] (setting [10]) is 2.08 ± 0.05 nM; in series [2] (setting [11]), 2.08 nM; in series [3], 60 ± 12 nM; in series [4], 47 ± 2 nM; in series [5], above 30000 nM; in series [6], above 5000 nM. Moreover, the Ki in series [7] is above 80000 nM. Also, the “PK selectivity index K i(protease)/Ki(plasmin)” value in series [3] was 30. For the same compound, the “fXIa selectivity index K i(protease)/Ki(plasmin)” value in series [4] turned out to be 23.
Take `Cc1ccc2cc1NC(=O)C(CCc1ccccc1)NC(=O)CCCNC(=O)Cc1ccc(cc1)NC(=O)C(NC(=O)C1CCC(CN)CC1)Cc1ccc-2cc1` (stereo not drawn) [inhibitor 31]: the Ki in series [2] (setting [10]) is 0.831 ± 0.154 nM; in series [2] (setting [11]) it was 0.831 nM; in series [3] it was 67 ± 4 nM; in series [4], 88 ± 23 nM; in series [5], above 75000 nM; in series [6], above 10000 nM. Besides, the Ki in series [7] is above 80000 nM. Besides, the “PK selectivity index K i(protease)/Ki(plasmin)” value in [3] stood at 89. Moreover, the “fXIa selectivity index K i(protease)/Ki(plasmin)” value in series [4] was 117. In addition, the water solubility result in series [8] was “reduced water solubility”.
On to `Cc1ccc2cc1NC(=O)CNC(=O)CCNC(=O)c1ccc3cc(ccc3c1)NC(=O)[C@@H](NC(=O)[C@H]1CC[C@H](CN)CC1)Cc1ccc-2cc1` [inhibitor 45], for which the Ki in [2] (setting [10]) was 2.53 ± 0.23 nM; in series [2] (setting [11]) it was 2.53 nM; in [3] it was 156 ± 35 nM; in series [4] it was 320 ± 50 nM; in series [5] it was above 40000 nM; in [6] it was above 4000 nM. Moreover, the Ki in [7] was above 40000 nM. The “PK selectivity index K i(protease)/Ki(plasmin)” value in [3] is on record as 62. Also, the “fXIa selectivity index K i(protease)/Ki(plasmin)” value in [4] is on record as 137.
For the compound `CCCCCCCCNC(=O)[C@H](Cc1ccc(OCc2ccncc2)cc1)NC(=O)[C@H]1CC[C@H](CN)CC1` [YO-2], the IC50 in series [9] was 240 nM.
For the compound `CC(C)NC(=O)c1ccc2cc1NC(=O)CNC(=O)CCCNC(=O)Cc1ccc(cc1)NC(=O)C(NC(=O)C1CCC(CN)CC1)Cc1ccc-2cc1` [inhibitor 33, (S)‐4‐((1r,4S)‐4‐(aminomethyl)cyclohexane‐1‐carboxamido)‐N‐isopropyl‐5,9,14,17‐tetraoxo‐6,10,15,18‐tetraaza‐1(1,3),2,7(1,4)‐tribenzenacyclooctadecaphane‐14‐carboxamide], the Ki in series [2] (setting [10]) is 0.52 nM and 0.524 nM; in [2] (setting [11]), 0.524 nM; in series [3], 9.4 ± 2.1 nM; in [4] it was 8.1 ± 1.6 nM; in [5] it was above 45000 nM; in series [6] it was above 35000 nM. Besides, the Ki in [7] was above 10000 nM. Further, the “PK selectivity index K i(protease)/Ki(plasmin)” value in series [3] is 21. Besides, the “fXIa selectivity index K i(protease)/Ki(plasmin)” value in series [4] was determined as 18.
As for `Cc1ccc2cc1NC(=O)CNC(=O)CCCNC(=O)Cc1cccc(c1)NC(=O)[C@@H](NC(=O)[C@H]1CC[C@H](CN)CC1)Cc1ccc-2cc1` [inhibitor 40], the Ki in series [2] (setting [10]) was 9.47 ± 0.75 nM; in series [2] (setting [11]), 9.47 nM; in series [3] it was 120 ± 10 nM; in [4], 110 ± 10 nM; in series [5] it was above 80000 nM; in series [6], above 40000 nM. Besides, the Ki in [7] is above 9000 nM. For the same compound, in series [3], the “PK selectivity index K i(protease)/Ki(plasmin)” value is listed as 14. For the same compound, the “fXIa selectivity index K i(protease)/Ki(plasmin)” value in series [4] is on record as 13.

A word on the IC50: it is the concentration needed to halve the response being measured.

Values taken from publication PMC11617653, “Macrocyclic Inhibitors Targeting the Prime Site of the Fibrinolytic Serine Protease Plasmin” (Chemmedchem, 2024).
